In patent US20250171432A1, “COMPOUNDS AND METHODS OF USE” (Tango Therapeutics, Inc., priority 2022, published 2025):

Key:
Assay type in all cases: cell-based
[1] = system: HAP1 MTAP-deleted cell line; experiment: Viability assay (CellTiter-Glo), HAP1 MTAP-deleted; conditions: Homo sapiens, 168 h, HAP1 MTAP-deleted cells, 7 days
Outline: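 HAP1 MTAP-deleted and MTAP-intact cells seeded, then dosed next day (n=3, 0.2% DMSO) and grown 7 days. Viability by CellTiter-Glo luminescence, expressed as % of DMSO control per cell line.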

[2] = system: SDMA (PRMT5 activity) in HAP1 MTAP-intact cell line; experiment: SDMA in-cell western assay, HAP1 MTAP-intact; conditions: Homo sapiens, SDMA in-cell western, HAP1 MTAP-intact cells, 24 hours compound incubation
[3] = system: SDMA (PRMT5 activity) in HAP1 MTAP-deleted cell line; experiment: SDMA in-cell western assay, HAP1 MTAP-deleted; conditions: for IC50 / IC90: Homo sapiens, SDMA in-cell western, HAP1 MTAP-deleted cells, 24 hours compound incubation; for Hap1 MTAP intact/deleted ratio: ratio of SDMA IC50 in HAP1 MTAP-intact to HAP1 MTAP-deleted cell line

IC50 ([2]; HAP1, 24 h) [nM]	IC50 [3] [nM]	IC90 [3] [nM]	Structure (SMILES)	IC50 [1] [nM]	Hap1 MTAP intact/deleted ratio [3]	IC50 [2] [nM]
> 50	< 5	< 75	COc1ncc(NC(=O)C(=O)N2C[C@@H](C)CC[C@@H]2c2ccc3sc(CC(C)(C)N(C)C)nc3c2)cc1C(N)=O [Compound 120, 5-(2-((2R,5S)-2-(2-(2-(dimethylamino)-2-methylpropyl)benzo[d]thiazol-5-yl)-5-methylpiperidin-1-yl)-2-oxoacetamido)-2-methoxynicotinamide]	< 100	A (“A” indicates an IC50 ratio greater than or equal to 30 fold)	
> 50	< 5	< 75	CCc1cc(NC(=O)C(=O)N2C[C@@H](C)CC[C@@H]2c2ccc3ccc(C4CCN(C)CC4)cc3c2)cnc1N [Compound 123, N-(6-amino-5-ethylpyridin-3-yl)-2-((2R,5S)-5-methyl-2-(7-(1-methylpiperidin-4-yl)naphthalen-2-yl)piperidin-1-yl)-2-oxoacetamide]	< 100	A (“A” indicates an IC50 ratio greater than or equal to 30 fold)	
> 50	5 to 50	> 125	COc1ncc(NC(=O)C(=O)N2C[C@@H](C)CC[C@@H]2c2ccc3sc([C@H]4CN(C)CCO4)nc3c2)cc1C(N)=O [Compound 124]	100 to 1000	A (“A” indicates an IC50 ratio greater than or equal to 30 fold)	
> 50	< 5	< 75	COc1ncc(NC(=O)C(=O)N2C[C@@H](C)CC[C@@H]2c2ccc3ccc(N4CCN(C)CC4)nc3c2)cc1C(N)=O [Compound 126, 2-methoxy-5-(2-((2R,5S)-5-methyl-2-(2-(4-methylpiperazin-1-yl)quinolin-7-yl)piperidin-1-yl)-2-oxoacetamido)nicotinamide]	< 100	A (“A” indicates an IC50 ratio greater than or equal to 30 fold)	
5 to 50	< 5	< 75	CCc1cc(NC(=O)C(=O)N2C[C@@H](C)CC[C@@H]2c2ccc3cn([C@@H]4CCN(C)C[C@@H]4C)nc3c2)cnc1N [Compound 127]	< 100	C (“C” indicates an IC50 ratio of less than 15 fold)	
> 50	5 to 50	> 125	CCc1cc(NC(=O)C(=O)N2C[C@@H](C)CC[C@@H]2c2ccc(F)c(OCCN(C)C)c2)cnc1N [Compound 128, N-(6-amino-5-ethylpyridin-3-yl)-2-((2R,5S)-2-(3-(2-(dimethylamino)ethoxy)-4-fluorophenyl)-5-methylpiperidin-1-yl)-2-oxoacetamide]	< 100	A (“A” indicates an IC50 ratio greater than or equal to 30 fold)	

Structure (SMILES)	IC50 ([2]; HAP1, 24 h) [nM]	IC50 [3] [nM]	IC90 [3] [nM]	IC50 [1] [nM]	Hap1 MTAP intact/deleted ratio [3]	IC50 [2] [nM]
COc1ncc(NC(=O)C(=O)N2C[C@@H](C)CC[C@@H]2c2ccc3sc(C4(C)CCN(C)CC4)nc3c2)cc1C(N)=O [Compound 122, 5-(2-((2R,5S)-2-(2-(1,4-dimethylpiperidin-4-yl)benzo[d]thiazol-5-yl)-5-methylpiperidin-1-yl)-2-oxoacetamido)-2-methoxynicotinamide]		< 5	< 75	< 100	A (“A” indicates an IC50 ratio greater than or equal to 30 fold)	> 50
